Source: patent US20070117770A1, “Human ribosomal DNA (rDNA) and ribosomal RNA (rRNA) nucleic acids and uses thereof” (Cylene Pharmaceuticals, Inc., priority 2005, published 2007)

Assays:
Experiment in all cases: Protein kinase inhibition assay
Lck(h) = Lck(h) (Homo sapiens, UniProt P06239); assay type: biochemical; conditions: read-out: percent residual activity of Lck(h)
Experimental: (§1) Certain compounds were tested for activity in protein kinase inhibition assays. All substrates were dissolved and diluted to working stocks in de-ionized water, apart from histone H1 (10× working stock in 20 mM MOPS pH 7.0), PDKtide (10× working stock in 50 mM Tris pH 7.0) ATF2 (which is typically stored at a 20× working stock in 50 mM Tris pH 7.5, 150 mM NaCl, 0.1 mM EGTA, 0.03% Brij-35, 50% glycerol, 1 mM benzamidine, 0.2 mM PMSF and 0.1% R-mercaptoethanol), KKLNRTLSFAEPG (SEQ ID NO:203) and RRRLSFAEPG (SEQ ID NO:204) (50 mM HEPES pH 7.4) and GGEEEEYFELVKKKK (SEQ ID NO:205) (20 mM MOPS pH 7.0). All kinases were pre-diluted to a 10× working concentration prior to addition into the assay. The composition of the dilution buffer for each kinase is detailed below.
In a final reaction volume of 25 μl, Lck (h) (5-10 mU) is incubated with 50 mM Tris pH 7.5, 0.1 mM EGTA, 0.1 mM Na3VO4, 250 μM KVEKIGEGTYGVVYK (SEQ ID NO:211) (Cdc2 peptide), 10 mM MgAcetate and [gamma-33P-ATP] (specific activity approx. 500 cpm/pmol, concentration as required). The reaction is initiated by the addition of the MgATP mix. After incubation for 40 minutes at room temperature, the reaction is stopped by the addition of 5 μl of a 3% phosphoric acid solution. […]

EphA4(h) = EphA4(h) (Homo sapiens, UniProt P54764); assay type: biochemical; conditions: read-out: percent residual activity of EphA4(h)
Experimental: as §1
(§2) In a final reaction volume of 25 μl, EphA4 (h) (5-10 mU) is incubated with 8 mM MOPS pH 7.0, 0.2 mM EDTA, 10 mM MnCl2, 0.1 mg/ml poly(Glu, Tyr) 4:1, 10 mM MgAcetate and [y-33P-ATP] (specific activity approx. 500 cpm/pmol, concentration as required). The reaction is initiated by the addition of the MgATP mix. After incubation for 40 minutes at room temperature, the reaction is stopped by the addition of 5 μl of a 3% phosphoric acid solution. 10 μl of the reaction is then spotted onto a Filtermat A and washed three times for 5 minutes in 75 mM phosphoric acid and once in methanol prior to drying and scintillation counting.

ErbB4(h) = ErbB4(h) (Homo sapiens, UniProt Q15303); assay type: biochemical; conditions: read-out: percent residual activity of ErbB4(h)
Experimental: as §1
as §2, with “μl, ErbB4” for “μl, EphA4”, “EDTA, 2.5” for “EDTA, 10”, “and [gamma-33P-ATP]” for “and [y-33P-ATP]”, “10 ll” for “10 μl”

Fms(h) = Fms(h) (Homo sapiens, UniProt P07333); assay type: biochemical; conditions: read-out: percent residual activity of Fms(h)
Experimental: as §1
as §2, with “Fms” for “EphA4”, “250 μM KKKSPGEYVNIEFG (SEQ ID NO:207),” for “10 mM MnCl2, 0.1 mg/ml poly(Glu, Tyr) 4:1,”, “P30 filtermat” for “Filtermat A”

BRK(h) = BRK(h) (Homo sapiens, UniProt Q13882); assay type: biochemical; conditions: read-out: percent residual activity of BRK(h)
Experimental: as §1
as §2, with “μl, BRK” for “μl, EphA4”, “EDTA, 5” for “EDTA, 10”, “mg/ml poly (Glu,” for “mg/ml poly(Glu,”, “and [gamma-33P-ATP]” for “and [y-33P-ATP]”

c-RAF(h) = assay type: biochemical, human; conditions: 2.5 μM
Experimental: as §1
In a final reaction volume of 25 μl, c-RAF (h) (5-10 mU) is incubated with 25 mM Tris pH 7.5, 0.02 mM EGTA, 0.66 mg/ml myelin basic protein, 10 mM MgAcetate and [gamma-33P-ATP] (specific activity approx. 500 cpm/pmol, concentration as required). The reaction is initiated by the addition of the MgATP mix. After incubation for 40 minutes at room temperature, the reaction is stopped by the addition of 5 μl of a 3% phosphoric acid solution. 10 μl of the reaction is then spotted onto a P30 filtermat and washed three times for 5 minutes in 75 mM phosphoric acid and once in methanol prior to drying and scintillation counting.

Chain of BRK(h) (Q13882 whole entry): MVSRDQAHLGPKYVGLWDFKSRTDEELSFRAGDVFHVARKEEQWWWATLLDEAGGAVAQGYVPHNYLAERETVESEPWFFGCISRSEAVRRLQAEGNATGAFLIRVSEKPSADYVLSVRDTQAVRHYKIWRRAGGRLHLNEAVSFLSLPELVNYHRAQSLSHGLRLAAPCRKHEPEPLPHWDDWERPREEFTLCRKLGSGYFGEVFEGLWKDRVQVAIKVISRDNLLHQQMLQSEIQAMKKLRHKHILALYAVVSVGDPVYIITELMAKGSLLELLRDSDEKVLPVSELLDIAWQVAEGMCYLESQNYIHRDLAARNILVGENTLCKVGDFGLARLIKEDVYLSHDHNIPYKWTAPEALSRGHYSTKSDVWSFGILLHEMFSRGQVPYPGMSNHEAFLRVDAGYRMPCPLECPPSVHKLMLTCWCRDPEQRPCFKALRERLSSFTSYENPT
Chain of Fms(h) (P07333 20-972): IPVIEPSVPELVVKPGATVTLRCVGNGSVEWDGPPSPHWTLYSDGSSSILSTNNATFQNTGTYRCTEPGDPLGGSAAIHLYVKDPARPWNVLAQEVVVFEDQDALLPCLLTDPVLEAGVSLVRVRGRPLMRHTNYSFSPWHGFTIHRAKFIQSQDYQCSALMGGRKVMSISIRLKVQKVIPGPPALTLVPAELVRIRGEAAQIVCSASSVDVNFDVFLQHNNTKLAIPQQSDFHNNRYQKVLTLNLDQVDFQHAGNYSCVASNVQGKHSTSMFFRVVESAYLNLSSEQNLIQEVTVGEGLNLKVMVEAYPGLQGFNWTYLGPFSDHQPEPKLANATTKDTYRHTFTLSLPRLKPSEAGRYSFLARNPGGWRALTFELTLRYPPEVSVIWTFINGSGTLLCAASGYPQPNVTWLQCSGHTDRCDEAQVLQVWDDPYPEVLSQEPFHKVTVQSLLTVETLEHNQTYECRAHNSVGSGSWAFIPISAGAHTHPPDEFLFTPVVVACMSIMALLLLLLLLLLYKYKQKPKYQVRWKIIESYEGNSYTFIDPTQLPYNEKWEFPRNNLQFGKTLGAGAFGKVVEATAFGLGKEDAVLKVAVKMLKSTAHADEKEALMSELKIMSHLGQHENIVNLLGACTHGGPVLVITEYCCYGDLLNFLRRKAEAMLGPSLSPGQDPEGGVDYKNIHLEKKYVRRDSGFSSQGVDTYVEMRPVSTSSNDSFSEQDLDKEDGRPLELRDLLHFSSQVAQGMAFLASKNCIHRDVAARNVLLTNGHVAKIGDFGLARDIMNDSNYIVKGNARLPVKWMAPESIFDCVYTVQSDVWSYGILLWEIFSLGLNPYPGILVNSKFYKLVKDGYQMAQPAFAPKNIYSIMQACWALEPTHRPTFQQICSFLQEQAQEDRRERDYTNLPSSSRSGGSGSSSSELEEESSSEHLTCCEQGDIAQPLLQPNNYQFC
Chain of Lck(h) (P06239 whole entry): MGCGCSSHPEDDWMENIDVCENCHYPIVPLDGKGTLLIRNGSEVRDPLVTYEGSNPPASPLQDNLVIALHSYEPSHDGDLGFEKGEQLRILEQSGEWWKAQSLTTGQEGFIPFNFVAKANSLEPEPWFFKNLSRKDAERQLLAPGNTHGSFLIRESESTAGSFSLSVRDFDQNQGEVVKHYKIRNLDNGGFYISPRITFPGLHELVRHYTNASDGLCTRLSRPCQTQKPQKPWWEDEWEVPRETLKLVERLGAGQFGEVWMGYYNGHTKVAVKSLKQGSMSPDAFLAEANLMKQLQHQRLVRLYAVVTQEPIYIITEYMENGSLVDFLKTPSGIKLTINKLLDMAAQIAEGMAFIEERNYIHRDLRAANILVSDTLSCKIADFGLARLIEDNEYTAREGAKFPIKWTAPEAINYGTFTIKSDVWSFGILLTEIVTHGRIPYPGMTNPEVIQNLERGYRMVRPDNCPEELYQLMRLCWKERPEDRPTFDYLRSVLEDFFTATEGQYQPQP
Chain of EphA4(h) (P54764 20-986): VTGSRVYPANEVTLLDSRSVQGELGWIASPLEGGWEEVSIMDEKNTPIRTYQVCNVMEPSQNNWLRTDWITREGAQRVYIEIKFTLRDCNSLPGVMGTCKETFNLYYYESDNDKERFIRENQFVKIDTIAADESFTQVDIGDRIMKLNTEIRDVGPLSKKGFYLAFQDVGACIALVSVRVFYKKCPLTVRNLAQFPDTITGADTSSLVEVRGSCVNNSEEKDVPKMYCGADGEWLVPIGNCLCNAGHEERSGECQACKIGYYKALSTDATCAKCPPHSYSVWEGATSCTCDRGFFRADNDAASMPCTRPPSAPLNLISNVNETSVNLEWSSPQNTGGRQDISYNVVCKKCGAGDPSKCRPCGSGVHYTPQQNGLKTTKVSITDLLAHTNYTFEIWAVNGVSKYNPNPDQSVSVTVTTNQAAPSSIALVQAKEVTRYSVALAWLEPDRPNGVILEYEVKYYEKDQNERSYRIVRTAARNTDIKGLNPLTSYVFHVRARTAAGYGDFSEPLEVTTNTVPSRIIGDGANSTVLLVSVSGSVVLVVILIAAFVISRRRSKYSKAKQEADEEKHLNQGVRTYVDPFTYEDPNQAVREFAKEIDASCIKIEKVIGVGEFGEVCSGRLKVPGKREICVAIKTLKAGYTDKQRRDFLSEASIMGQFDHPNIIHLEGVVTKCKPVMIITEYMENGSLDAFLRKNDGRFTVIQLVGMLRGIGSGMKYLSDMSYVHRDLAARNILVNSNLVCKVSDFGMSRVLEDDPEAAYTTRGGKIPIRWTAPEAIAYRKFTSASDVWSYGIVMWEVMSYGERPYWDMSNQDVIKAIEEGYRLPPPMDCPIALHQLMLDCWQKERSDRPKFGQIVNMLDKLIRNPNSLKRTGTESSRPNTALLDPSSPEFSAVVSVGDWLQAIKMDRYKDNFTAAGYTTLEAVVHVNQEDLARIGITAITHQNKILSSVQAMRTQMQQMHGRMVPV
Chain of ErbB4(h) (Q15303 26-1308): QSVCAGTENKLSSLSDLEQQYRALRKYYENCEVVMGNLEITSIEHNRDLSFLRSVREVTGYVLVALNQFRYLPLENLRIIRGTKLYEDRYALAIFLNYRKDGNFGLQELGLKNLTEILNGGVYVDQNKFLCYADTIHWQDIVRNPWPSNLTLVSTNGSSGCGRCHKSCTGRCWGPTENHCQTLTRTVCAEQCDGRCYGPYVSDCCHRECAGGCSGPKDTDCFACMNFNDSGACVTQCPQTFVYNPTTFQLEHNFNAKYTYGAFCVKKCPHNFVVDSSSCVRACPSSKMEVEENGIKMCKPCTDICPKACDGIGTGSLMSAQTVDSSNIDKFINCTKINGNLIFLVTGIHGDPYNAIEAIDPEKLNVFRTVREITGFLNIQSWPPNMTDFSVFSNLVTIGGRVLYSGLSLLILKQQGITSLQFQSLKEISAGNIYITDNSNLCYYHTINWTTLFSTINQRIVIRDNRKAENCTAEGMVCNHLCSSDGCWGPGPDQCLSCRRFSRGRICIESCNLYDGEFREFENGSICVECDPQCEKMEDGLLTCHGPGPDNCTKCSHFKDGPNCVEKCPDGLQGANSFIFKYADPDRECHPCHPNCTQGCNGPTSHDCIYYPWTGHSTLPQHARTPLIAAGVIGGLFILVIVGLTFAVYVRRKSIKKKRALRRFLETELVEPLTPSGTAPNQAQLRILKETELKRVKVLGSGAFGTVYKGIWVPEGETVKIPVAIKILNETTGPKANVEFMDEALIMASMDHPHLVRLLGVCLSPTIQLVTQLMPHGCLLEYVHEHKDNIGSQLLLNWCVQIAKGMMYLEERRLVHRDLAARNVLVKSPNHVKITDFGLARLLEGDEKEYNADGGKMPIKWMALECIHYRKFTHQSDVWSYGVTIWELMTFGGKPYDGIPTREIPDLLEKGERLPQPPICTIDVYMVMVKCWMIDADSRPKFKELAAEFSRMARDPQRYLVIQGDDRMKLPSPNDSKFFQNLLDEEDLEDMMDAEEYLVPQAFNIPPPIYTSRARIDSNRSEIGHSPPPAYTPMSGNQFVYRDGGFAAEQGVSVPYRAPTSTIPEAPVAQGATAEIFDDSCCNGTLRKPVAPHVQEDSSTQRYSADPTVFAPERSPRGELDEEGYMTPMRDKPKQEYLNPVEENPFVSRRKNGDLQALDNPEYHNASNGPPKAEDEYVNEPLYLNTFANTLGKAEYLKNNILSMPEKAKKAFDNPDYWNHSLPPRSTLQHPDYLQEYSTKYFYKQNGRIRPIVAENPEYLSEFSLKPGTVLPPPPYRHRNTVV

Row | SMILES | remaining activity at 2.5 µM (Lck(h)) [%] | remaining activity at 2.5 µM (EphA4(h)) [%] | remaining activity at 2.5 µM (ErbB4(h)) [%] | remaining activity at 2.5 µM (Fms(h)) [%] | remaining activity at 2.5 µM (BRK(h)) [%] | percent residual activity of c-RAF(h) (c-RAF(h)) [%]
1 | CN1CCCC1CCNC(=O)c1cn2c3c(c(N4CCC(c5cnccn5)C4)c(F)cc3c1=O)Oc1cc3ccccc3cc1-2 (stereo not drawn) [Compound A-1] | 170 | 107 | 92 | 131 | 131 | 100
2 | CC(=O)N1CCN(c2ccc3c(=O)c(C(=O)NCCN4CCCC4)c4n(C)c5ccccc5n4c3n2)CC1 [Compound B-1] | 115 | 134 | 107 | 107 | 98 | 96
